This is an account of results in US8110682B2, “Preparation and use of compounds as aspartyl protease inhibitors” (Schering Corporation, priority 2005, dated 2012).

As a reminder, the Ki is the equilibrium dissociation constant of an inhibitor or competing ligand from its target.

This test addresses T1, sproBACE1 (soluble human BACE1) (Homo sapiens, UniProt P56817).
T1 construct: sBACE1, corresponding to amino acids 1-454; myc (C); His (C); made in house; host or cells: Sf9 insect cells (baculovirus), secreted into medium
In words: BACE-1 peptide hydrolysis assay (HTRF, APPsw substrate). The format is biochemical. The settings on record: 7 nM sproBACE1, pH 5.0, 30° C. From the text:
A predicted soluble form of human BACE1 (sBACE1, corresponding to amino acids 1-454) is generated from the full length BACE1 cDNA (full length human BACE1 cDNA in pcDNA4/mycHisA construct; University of Toronto) by PCR using the advantage-GC cDNA PCR kit (Clontech, Palo Alto, Calif.). A HindIII/Pmel fragment from pcDNA4-sBACE1 myc/His is blunt ended using Klenow and subcloned into the Stu I site of pFASTBACI(A) (Invitrogen). A sBACE1mycHis recombinant bacmid is generated by transposition in DH10Bac cells(GIBCO/BRL). Subsequently, the sBACE1 mycHis bacmid construct is transfected into sf9 cells using CellFectin (Invitrogen, San Diego, Calif.) in order to generate recombinant baculovirus. […]
Proteins, are eluted from the Q-sepharose column with Buffer B (20 mM HEPES, pH 8.0, 500 mM NaCl). […] Peak protein fractions as determined by the Bradford Assay (Biorad, Calif.) are concentrated using a Centricon 30 concentrator (Millipore). sBACE1 purity is estimated to be ˜90% as assessed by SDS-PAGE and Commassie Blue staining. […]
IC50 determinations for inhibitors, (I), are determined by measuring the percent change of the relative fluorescence at 665 nm divided by the relative fluorescence at 620 nm, (665/620 ratio), in the presence of varying concentrations of I and a fixed concentration of enzyme and substrate.
On the technique in general: TR-FRET usually uses a lanthanide donor and a delayed reading to cut background.

T1 sequence (P56817 22-454): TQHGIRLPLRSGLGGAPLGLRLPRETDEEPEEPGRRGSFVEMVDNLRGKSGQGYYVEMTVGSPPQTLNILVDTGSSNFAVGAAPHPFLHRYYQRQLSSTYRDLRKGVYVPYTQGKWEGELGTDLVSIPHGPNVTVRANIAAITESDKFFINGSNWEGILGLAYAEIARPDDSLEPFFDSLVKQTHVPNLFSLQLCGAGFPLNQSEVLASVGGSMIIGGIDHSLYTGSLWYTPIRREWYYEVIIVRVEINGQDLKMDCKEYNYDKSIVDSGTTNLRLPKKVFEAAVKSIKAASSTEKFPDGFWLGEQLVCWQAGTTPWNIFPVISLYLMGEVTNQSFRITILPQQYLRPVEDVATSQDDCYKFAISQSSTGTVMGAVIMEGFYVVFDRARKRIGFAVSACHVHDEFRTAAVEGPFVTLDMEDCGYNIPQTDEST

For the compound `CN1C(=N)NC(C)(c2cccc(-c3cc(Cl)cc(Cl)c3)c2)N(C)C1=O` (stereo not shown) [Example 7], the Ki was found to be 1360 nM.
